For one compound, IC50 results are on record in patent US12606551B2, “Salt of tetrahydroisoquinoline derivative, preparation method therefor, and medical use thereof” (ZHEJIANG HISUN PHARMACEUTICAL CO., LTD., priority 2020, dated 2026).

SMILES strings stand for the structures. Bounds are passed on as bounds.

This assay deals with T1, AT1R (Homo sapiens, UniProt P30556).
T1 construct: Tb (terbium) label on the receptor; expressed in transfected cells
T1 sequence (P30556 1-359): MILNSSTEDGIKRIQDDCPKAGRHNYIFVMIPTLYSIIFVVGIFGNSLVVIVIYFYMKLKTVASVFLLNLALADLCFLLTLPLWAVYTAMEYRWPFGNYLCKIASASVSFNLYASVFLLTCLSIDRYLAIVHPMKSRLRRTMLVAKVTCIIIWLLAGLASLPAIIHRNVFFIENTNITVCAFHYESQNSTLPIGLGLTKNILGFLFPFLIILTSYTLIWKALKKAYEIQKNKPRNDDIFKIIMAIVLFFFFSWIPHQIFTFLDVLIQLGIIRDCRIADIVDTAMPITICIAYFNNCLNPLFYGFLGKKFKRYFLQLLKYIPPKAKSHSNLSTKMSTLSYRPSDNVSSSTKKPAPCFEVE
In words: Antagonistic activity against AT1R (same method with Tb-labeled-AT1R cells). It counts as binding. On the procedure: (12) Similarly, the IC50 of the antagonistic activity of the compounds of the present invention against AT1R was tested according to basically the same method, except that Tb-labeled-AT2R cells were replaced by Tb-labeled-AT1R cells.

Turning to `COc1ccc(COc2c(OC)ccc3c2C[C@@H](C(=O)[O-])N(c2nc4ccc(F)cc4o2)C3)nc1.[Na+]` [Compound 1], the IC50 is above 10 µM.

Usually IC50 stands for the concentration that gives 50% inhibition. A low value points to greater potency in that assay.
